Columns and labels:
[1] = system: Human renal carcinoma cell line TK-10; test: IL-8 release from IL-25/TNFa-treated TK-10 cells; type: cell-based; details: 1 mg/mL; 100 ng/mL IL-25, 10 ng/mL TNFa; 24 or 48 hours
Method: Human renal carcinoma cell line TK-10 (NCI-60, NIH, Bethesda, MD) treated with human IL-25 (PeproTech) and TNFa (R&D systems) can lead to the release of IL-8, also known as neutrophil chemotactic factor, an important mediator of the immune reaction in the innate immune system response. Accordingly, the inhibitory effects of SM17 and its murine counterpart (D9.2) on IL-8 release from IL-25/TNFa-treated TK-10 cells was evaluated. Briefly, SM17 (human IgG4 isotype, SinoMab BioScience Limited, Hong Kong, China), SM17-IgG1 (human IgG1 isotype, SinoMab BioScience Limited) and its murine counterpart (D9.2, SinoMab BioScience Limited) at a concentration of 1 mg/mL were added to 2×10^4 of TK-10 cells in the presence of 100 ng/mL of IL-25 and 10 ng/mL of TNFa. Non-specific human IgG1 (SM03, anti-CD22 chimeric antibody, SinoMab BioScience Limited) was used as the control antibody. Treated cells were cultured in OptiMEM (Thermo Fisher Scientific) for 24 or 48 hours at 37° C., and the level of IL-8 release in the culture supernatant was measured by standard ELISA assay using a commercial kit (R&D systems).

[2] = system: OVA-induced murine experimental asthma; test: Ovalbumin induced asthma on mice; type: in vivo, BALB/c mice
Method: Female BALB/c mice were induced with ovalbumin to elicit asthma like symptoms on mice. Briefly, mice were each sensitized with […] of ovalbumin (OVA) emulsified in 1 mg of aluminum hydroxide in a total volume of […] via intraperitoneal (IP) injections on Days 0 and 12. Mice were divided into 6 groups with 8 mice per group. Sensitized mice were exposed to aerosolized 5% OVA in sterile water, 20 minutes/day for six consecutive days (Days 19, 20, 21, 22, 23 and 24). Naïve mice inhaled the atomized water, 20 minutes/day, for six consecutive days. Mice were then i.v. injected with different concentrations of SM17, PBS (control), or dexamethasone (Dex) 4 hours before aerosol challenge, once per day (Day 19 to 24).
On day 25 (24 hours after the last OVA challenge), mice were anesthetized with Telazol® (20-40 mg/kg i.p.) and connected to a computer-controlled ventilator via the tracheal cannula. The time of expiration/inspiration and the respiratory rate were preset at 1.5:1 and 90/min, respectively. After a steady baseline was established, the resistance of the lung (RL) was recorded to evaluate the reaction of mice to a methacholine chloride gradient (0.025 and 0.05 mg/kg body weight); the methacholine chloride was injected into the vena jugulars externa at 5-min intervals via a fine needle. […] BALF from mice sacrificed on Day 25 was retrieved, and inflammatory cell number and the concentrations of inflammatory cytokine from BALF were determined.
Results are presented as means±SEM. One Way ANOVA, Dunnett's Multiple Comparison Test, *: P<0.05; **: P<0.01. Dex=Dexamethasone.

hIL 17RD = target: T1, hIL 17RD (Homo sapiens, UniProt Q8NFM7); test: ELISA, SM17 specificity against IL-17 receptor subunits (IL17RD); type: binding; details: 0.4 to 0.00064 μg/mL
T1 construct: purchased R&D systems
T1 sequence (Q8NFM7 17-739): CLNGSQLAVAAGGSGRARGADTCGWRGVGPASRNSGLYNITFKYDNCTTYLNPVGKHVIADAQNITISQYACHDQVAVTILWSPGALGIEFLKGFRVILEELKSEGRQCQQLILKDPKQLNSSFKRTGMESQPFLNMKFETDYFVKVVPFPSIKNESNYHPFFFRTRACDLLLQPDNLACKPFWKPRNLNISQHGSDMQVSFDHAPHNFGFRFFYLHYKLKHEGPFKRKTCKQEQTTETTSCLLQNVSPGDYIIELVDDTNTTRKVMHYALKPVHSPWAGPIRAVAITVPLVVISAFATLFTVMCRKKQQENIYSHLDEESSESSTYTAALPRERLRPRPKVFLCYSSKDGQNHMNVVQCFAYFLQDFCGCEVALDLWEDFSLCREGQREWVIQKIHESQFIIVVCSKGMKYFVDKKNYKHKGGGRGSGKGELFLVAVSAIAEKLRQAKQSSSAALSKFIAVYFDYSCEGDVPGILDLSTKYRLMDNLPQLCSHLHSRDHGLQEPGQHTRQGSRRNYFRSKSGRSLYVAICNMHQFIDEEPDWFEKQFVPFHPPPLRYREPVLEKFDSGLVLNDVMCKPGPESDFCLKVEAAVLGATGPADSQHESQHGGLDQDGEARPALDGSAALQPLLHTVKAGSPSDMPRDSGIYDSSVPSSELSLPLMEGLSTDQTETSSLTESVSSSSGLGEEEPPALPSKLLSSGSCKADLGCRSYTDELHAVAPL
Method: A standard ELISA method was used to determine the specificity of SM17 against other human IL17 receptor subunits. Similarly, serially diluted SM17 at different concentrations (final concentrations at 0.4, 0.08, 0.016, 0.0032 and 0.00064 μg/m, respectively) was added to the wells of ELISA plates coated either with human IL-17 receptor subunits A, C, D and E (IL17RA, IL17RC, IL17RD, and IL17RE) (R&D systems).

IL-33 = target: T2, IL-33 (Homo sapiens, UniProt O95760); test: Bio-Layer Interferometry (Octet), binding kinetics of bsBp to human IL-33
T2 construct: purchased R&D systems
T2 sequence (O95760 95-270): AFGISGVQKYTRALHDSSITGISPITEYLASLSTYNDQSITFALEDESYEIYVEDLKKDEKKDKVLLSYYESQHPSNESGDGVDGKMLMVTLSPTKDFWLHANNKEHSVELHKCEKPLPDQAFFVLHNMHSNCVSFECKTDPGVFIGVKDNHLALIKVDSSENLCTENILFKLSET
Method: (§1) The binding affinity of bsBp to the targeted alarmins was determined using a bio-Layer Interferometry analysis (Octet ReD96 system, Sartorius). bsBp or SM17 (20 μg/mL) was immobilized on biosensors via binding to anti-human Fab CH1 region; serially diluted human IL33 and TSLP (158.7 nM, 79.4 nM, 39.7 nM) (R&D systems) were added to plot the association and dissociation curve according to the manufacturer's specification. Biosensors immobilized with irrelevant antibody (SM03, anti-human CD22 chimeric IgG1 antibody, SinoMab BioScience Limited, 20 μg/mL) were used as control reference.

TSLP = target: T3, TSLP (Homo sapiens, UniProt Q969D9); test: Bio-Layer Interferometry (Octet), binding kinetics of bsBp to human TSLP
T3 construct: purchased R&D systems
Method: as §1

[3] = bsBp or SM17 immobilized at 20 μg/mL

SM17: humanized anti-IL17RB monoclonal antibody, human IgG4 isotype; HC SEQ ID NO: 32, LC SEQ ID NO: 33
release of IL-8 by IL-25/TNFa-induced TK-10 cells (in words) [1]: efficiently suppress the release of IL-8 | airway hyperresponsiveness (in words) ([2]; 1 mg/kg or 3 mg/kg SM17 before each OVA aerosolization): mild but not significant abrogation in AHR | airway hyperresponsiveness (in words) ([2]; 5 mg/kg SM17 i.v. once per day, Day 19 to 24, methacholine challenge day 25): prevented airway hyperresponsiveness | number of pulmonary infiltrated eosinophils (in words) ([2]; SM17 at 5 mg/kg): significantly reduce the number of pulmonary infiltrated eosinophils | IL-13 levels in BALF (in words) ([2]; SM17 at 5 mg/kg, Day 25): significantly reduced the IL-13 levels | eosinophil number in BALF (in words) ([2]; SM17 at 5 mg/kg, Day 25): significantly reduced | IL-5 levels in BALF (in words) ([2]; SM17 at 1, 3 and 5 mg/kg, Day 25): significantly reduced the IL-5 levels in BALF | binding of SM17 to IL17RD (in words) (hIL 17RD): No obvious bindings | Kd (IL-33): 659 µM | Kdis (IL-33): 17.9 s⁻¹ | Ka (IL-33; [3]): 27200 M⁻¹ s⁻¹ | Kdis (TSLP): 0.001 s⁻¹ | Ka (TSLP; [3]): 10000 M⁻¹ s⁻¹
